From US12435379B2 (The University of Chicago, priority 2016, dated 2025)

Columns and labels:
[1] = test system: TMD8 cells transfected with BTK T316A; settings: 100 nM ibr 3 days, 10 μM BrdU 2 hrs
Method: (§1) FIGS. 3A-C. […] (A) Growth of TMD8 cells transfected with BTK T316A, C481S, and WT BTK constructs. The transfected cells were cultured with either 100 nM ibr or DMSO. The live cell numbers were counted daily to 7 days. […] (B) Cell proliferation evaluated with the BrdU incorporation assay. Cells transfected with WT BTK and T316A were treated with 100 nM ibr for 3 days and were labeled with 10 μM BrdU for 2 hrs.
(§2) BTK WT or mutant-transfected TMD8 cells were treated with ibr for 72 hrs at indicated doses. Cells were then exposed to 10 μM BrdU for 2 hrs followed by cell cycle analysis according to the manufacturer's instructions using BrdU Flow Kit (BD Pharmingen, San Diego, CA, USA). Flow cytometric analysis was performed using 4-laser BD LSR II using FACSDiva and FlowJo software.
(§3) The functional impact of T316A mutation was assessed at the cellular levels. BTK wild type (WT) and T316A as well as C481S expression vectors were constructed and transfected into an ibr-sensitive lymphoma cell line (TMD8) and cell growth was followed.

[2] = test system: TMD8 cells transfected with WT BTK; settings: 100 nM ibr 3 days, 10 μM BrdU 2 hrs
Method: as §1, §2, §3

C=CC(=O)N1CCC[C@@H](n2nc(-c3ccc(Oc4ccccc4)cc3)c3c(N)ncnc32)C1 [Ibrutinib, ibrutinib]
BrdU incorporation (cellular proliferation) under ibr [1]: 31.8%
BrdU incorporation (cellular proliferation) under ibr [2]: 9.71%
